# Laboratory results: paper PMC10709327, “A class of secreted mammalian peptides with potential to expand cell-cell communication” (Nature Communications, 2023)
# Where “and” joins values, the source holds several entries; their conditions need not be identical. Identical values can stand only once. Where a SMILES comes first, the peptide text is derived from it. [ ]: non-standard residue; d: D form. pGlu = O=C1CC[C@@H](C(=O)O)N1
# Assays:
# [1] = test system: diet-induced obese male mice; assay: Metabolic chamber studies after a single dose (food intake, RER, movement, VO2, VCO2); type: in vivo, mouse; conditions: single dose 50 mg/kg intraperitoneal
# Procedure: Fig. 5 Functional studies of […] in feeding and energy balance in mice. a Schematic of the primary amino acid sequence for full-length mouse GDF15 preproprotein and annotation of CAP-GDF15 sequence as well as the canonical GDF15 hormone sequence. b–d Food intake (b), respiratory exchange ratio (RER, c), and ambulatory activity (d) of 12–16-week diet-induced obese male mice following a single treatment of CAP-GDF15 (50 mg/kg, intraperitoneal) or vehicle control. e–g Food intake (e), RER (f), and ambulatory activity (g) of 12–16-week diet-induced obese male mice following a single treatment of scrambled CAP-GDF15 (50 mg/kg, intraperitoneal, scrambled sequence: pGlu-[…]-NH2) or vehicle control. h, i 3-day food intake (h) and body weight (i) of 12–16-week diet-induced obese male mice following treatment with CAP-GDF15 or scrambled CAP-GDF15 (50 mg/kg/day, IP), or vehicle control. […] For (b-i), p values were calculated by two-way ANOVA. Source data are provided as a Source Data file.
# Animal experiments were performed according to a procedure approved by the Stanford University Administrative Panel on Laboratory Animal Care. Mice were maintained in 12-h light-dark cycles at 22 °C and about 50% relative humidity and fed a standard irradiated rodent diet. Where indicated, a high-fat diet (D12492, Research Diets 60% kcal from fat) was used. Male C57BL/6 J (stock number 000664) and male C57BL/6 J DIO mice were purchased from the Jackson Laboratory (stock number 380050). For studies in high-fat diet-fed mice, peptides were dissolved in 18:1:1 (by volume) of saline:Kolliphor EL (Sigma Aldrich):DMSO and administered to mice by intraperitoneal injections at a volume of 10 µl/g at the indicated doses for the indicated times. For lipopolysacchardide injection, LPS (Sigma, #L2880-10MG) was dissolved in saline and administered to mice at a volume of 5 µl/g at indicated dose. For fasting, food was removed from mice for 16 h. For running, a six-lane Columbus Instruments animal treadmill (product 1055-SRM-D65) was used with following 1 h protocol: 10 min at 6 m/min, 50 min at 18 m/min, and increase every 2 min by 2 m/min for the last 10 minutes, all at 12° incline. For all treatment experiments, mice were mock injected with the vehicle for 3–5 days until body weights were stabilized. Heparin plasma was harvested by submandibular bleed. For all experiments, mice were randomly assigned to treatment groups. Experimenters were not blinded to groups.
# For acute energy expenditure studies, food intake, RER, movement, VO2, and VCO2 were collected with CLAMS Oxymax Metabolic Cages. Mice were placed in individual metabolic cages for 24 hours prior to experiment. Mice were injected with either vehicle, 50 mg/kg CAP-GDF15, 50 mg/kg uncapped CAP-GDF15, or 50 mg/kg scrambled CAP-GDF15 at 5 pm at T = 0. […] All experiments were done with 3–5 month old DIO mice (Jackson, stock 380050), fed high-fat diet ad libitum.
# (§1) Supplementary Figure 5. Additional measurements from metabolic chambers of mice treated with CAP-GDF15. a CAP-GDF15 plasma concentration after administration of CAP-GDF15 (50 mg/kg, intraperitoneal) or vehicle control. b-c VO2 (b) and VCO2 (c) of 12-16-week diet-induced obese male mice following a single treatment of CAP-GDF15 (50 mg/kg, intraperitoneal) or vehicle control. d-e VO2 (d) and VCO2 (e) of 12-16-week diet-induced obese male mice following a single treatment of scrambled CAP-GDF15 (50 mg/kg, intraperitoneal, scrambled sequence: p[…]-NH2) or vehicle control. f Acute food intake of 12-16-week diet-induced obese male mice following a single treatment of CAP-GDF15 (50 mg/kg, intraperitoneal), uncapped CAP-GDF15 (50 mg/kg, intraperitoneal), or vehicle control. For (a), N=3/group; (b-c), N=12/group; for (d-e), N=8/group; for (f), N=5/group.
# (§2) For (a-f), injection occurred at time T=0 (5:00pm). Data are shown as means ± SEM. For (b-i), p values were calculated by two-way ANOVA. Source data are provided as a Source Data
# [2] = CAP-GDF15 plasma concentration after administration; type: in vivo, mouse; conditions: for Plasma concentration after administration (Supplementary Figure 5a): 50 mg/kg, unit not given
# Procedure: To test this possibility, we administered a single dose of CAP-GDF15 (50 mg/kg, intraperitoneally) to diet-induced obese mice and measured whole body parameters of energy balance in metabolic chambers. At this dose, concentrations of plasma CAP-GDF15 rose by 5-fold from baseline at 30 min post-administration (Supplementary Fig. 5A). […] A corresponding and expected suppression of respiratory exchange ratio (RER) was also observed (Fig. 5c).
# as §1, §2
# [3] = diet-induced obese male mice, N = 12/group
compound,measurement,setting,value
CC(C)C[C@H](NC(=O)[C@@H]1CCC(=O)N1)C(=O)N[C@@H](CCC(=O)O)C(=O)N[C@@H](CC(C)C)C(=O)N[C@@H](CCCNC(=N)N)C(=O)N[C@@H](CC(C)C)C(=O)N[C@@H](CCCNC(=N)N)C(=O)N[C@H](C(=O)N[C@@H](C)C(=O)N[C@@H](C)C(=O)NCC(=O)N[C@@H](CCCNC(=N)N)C(N)=O)C(C)C [CAP-GDF15] ([pGlu]LELRLRVAAGR-NH2),suppression of food intake compared to vehicle-treated mice,"[1]; 12–16-week diet-induced obese male mice, 16 h after injection, N = 12 mice/group",~ 60%
same,effect on carbon dioxide production (VCO2),[1]; [3],did not alter
same,effect on oxygen consumption (VO2),[1]; [3],did not alter
same,effect on movement (ambulatory activity),"[1]; diet-induced obese male mice, N = 12 mice/group",did not alter
same,effect on respiratory exchange ratio (RER),"[1]; diet-induced obese male mice, metabolic chambers",suppression
same,rise of plasma CAP-GDF15 concentration from baseline,"[2]; 50 mg/kg intraperitoneal, 30 min post-administration, N = 3/group",~ 5 fold and 5 fold
same,Plasma concentration after administration (Supplementary Figure 5a),"[2]; 0 minutes (same values as vehicle), animal 1",2.565
same,Plasma concentration after administration (Supplementary Figure 5a),"[2]; 0 minutes (same values as vehicle), animal 2",0.7876
same,Plasma concentration after administration (Supplementary Figure 5a),"[2]; 0 minutes (same values as vehicle), animal 3",0.4564
same,Plasma concentration after administration (Supplementary Figure 5a),"[2]; 10 minutes, animal 1",3.639
same,Plasma concentration after administration (Supplementary Figure 5a),"[2]; 10 minutes, animal 2",4.514
same,Plasma concentration after administration (Supplementary Figure 5a),"[2]; 10 minutes, animal 3",3.221
same,Plasma concentration after administration (Supplementary Figure 5a),"[2]; 30 minutes, animal 1",2.641
same,Plasma concentration after administration (Supplementary Figure 5a),"[2]; 30 minutes, animal 2",3.3984
same,Plasma concentration after administration (Supplementary Figure 5a),"[2]; 30 minutes, animal 3",2.342
same,Plasma concentration after administration (Supplementary Figure 5a),"[2]; 60 minutes, animal 1",0.6432
same,Plasma concentration after administration (Supplementary Figure 5a),"[2]; 60 minutes, animal 2",0.7838
same,Plasma concentration after administration (Supplementary Figure 5a),"[2]; 60 minutes, animal 3",0.7186
same,Cmax,"[2]; mouse, plasma, ip, 50 mg/kg intraperitoneal, from approximately 1 nM endogenous level, read-out: maximum plasma concentration after dosing, as read from the figure by a reviewer",4 nM
